# Laboratory results taken from PMC6385203, “Mutations in the palm domain disrupt modulation of acid-sensing ion channel 1a currents by neuropeptides” (Scientific Reports, 2019).
# Peptide text beside a SMILES is read from it.
# Biological target: T1, ASIC1a N416C (Homo sapiens, UniProt P78348, N416C)
# T1 construct: expressed in transfected cells; host or cells: Xenopus laevis oocytes injected with cRNA
# T1 sequence (P78348 1-528 N416C): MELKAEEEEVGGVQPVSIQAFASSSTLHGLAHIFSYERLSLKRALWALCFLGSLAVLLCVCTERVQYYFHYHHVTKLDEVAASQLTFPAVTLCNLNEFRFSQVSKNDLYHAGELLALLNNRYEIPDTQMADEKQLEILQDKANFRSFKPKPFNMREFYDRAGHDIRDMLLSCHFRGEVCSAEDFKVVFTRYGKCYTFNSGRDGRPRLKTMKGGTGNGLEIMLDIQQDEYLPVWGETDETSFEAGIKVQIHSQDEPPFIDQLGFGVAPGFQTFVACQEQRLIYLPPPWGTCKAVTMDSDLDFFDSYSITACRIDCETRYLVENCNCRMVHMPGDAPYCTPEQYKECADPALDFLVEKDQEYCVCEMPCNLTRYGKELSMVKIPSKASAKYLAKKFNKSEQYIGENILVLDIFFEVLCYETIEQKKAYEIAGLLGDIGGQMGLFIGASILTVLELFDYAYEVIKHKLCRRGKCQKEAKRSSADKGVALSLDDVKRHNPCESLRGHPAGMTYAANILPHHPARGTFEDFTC
# Assay: Isust/Ipeak, TEVC in Xenopus oocytes
# Type: cell-based
# Conditions: pH5, n = 6–7, mean ± SEM, read-out: EC50 of FRRFa (Isust/Ipeak)
# Text: To test the docking predictions, Cys mutants of palm and other proximal residues predicted to interact with the peptide were made. Since most of these residues are large and hydrophilic, the mutation to Cys changed the side chain properties substantially. Therefore, and because MTSET modification of many palm residues leads to currents with a large sustained component[22] that may render the measurement of FRRFa effects difficult, we exposed only the Cys mutants of hydrophobic residues (I307C and V414C) to 1 mM MTSET prior to the experiments with FRRFa. Asp212 was mutated to Gly (and not Cys), since we have previously observed that this residue is very sensitive to mutation, and that it is in most ASIC1a orthologs and even in several human ASIC1a clones a Gly. […] Due to the extremely small FRRFa-induced Isust/Ipeak ratio changes it was not possible to determine the EC50 of FRRFa on these mutants. To learn more about the nature of the Isust/Ipeak ratio increase by the N416C mutation, we measured the EC50 of FRRFa, which was 6 ± 2 μM (Fig. 6e, n = 6–7). […]
# Electrophysiological measurements were performed 1–2 days after cRNA injection. Ion currents were recorded using two-electrode voltage-clamp at a holding potential of −60 mV with a Dagan TEV-200 amplifier (Minneapolis, MN). […] The amplitude of the sustained current was measured in the last two seconds of the pH5 perfusion. […]
smiles,measurement,value
"N=C(N)NCCC[C@H](NC(=O)[C@H](CCCNC(=N)N)NC(=O)[C@@H](N)Cc1ccccc1)C(=O)N[C@@H](Cc1ccccc1)C(N)=O [FRRFa, Phe-Arg-Arg-Phe-amide] (H-FRRF-NH2)",EC50,6 ± 2 µM
